Data on three compounds can be found in patent US20230174945A1, “METHOD FOR INDUCING DIFFERENTIATION INTO PANCREATIC ALPHA CELLS” (KANEKA CORPORATION, priority 2020, published 2023).

In test [1] the test system is human iPS cells. Briefly: Quantitative RT-PCR of cells differentiated from human iPS cells, with additives in the endodermal cell to primitive gut tube (PGT) cell step. The class given is cell-based. As to conditions: added to medium for 3 days when inducing endodermal cells into PGT cells (0.67 µM LDN193189, 1 µM EC23); compared to cells of Comparative Example 1; standardized by OAZ1; FIG. 1. Here is the method:
Differentiation was induced by the same method as in Comparative Example 1 up to the endodermal cells. For induction of differentiation from the endodermal cells into primitive gut tube (PGT) cells, the suspension culture was implemented for 3 days in a medium obtained by adding 0.67 µM LDN193189 to the medium used in Comparative Example 1, a medium obtained by adding 1 µM EC23 to the medium used in Comparative Example 1, or a medium obtained by adding both of them to the medium used in Comparative Example 1. In addition, 2.5 µM Y-27632 was added to the above-mentioned medium for the purpose of maintaining the shape of the clumps. A 30 mL single-use bioreactor was mounted on a six-channel magnetic stirrer, and while stirring at the speed of 45 rpm, the suspension culture was implemented in a 5% CO2 incubator at 37° C. Induction of differentiation after posterior foregut (PFG) cells was performed in the same method as in Comparative Example 1.
Total RNA was isolated and purified from the cells obtained by inducing differentiation in (1) using Isogen (Nippon Gene), and cDNA was synthesized from the obtained total RNA using PrimeScriptII (TaKaRa Bio Inc.). Using the obtained cDNA as a template, quantitative PCR was implemented by means of a MyiQ qPCR machine (Bio-Rad), using GoTaq qPCR master mix (Promega). For the detection, the intercalation method using SYBR Green was used, and for the gene expression level comparison, the relative quantification method by means of the ΔΔCt method or the ΔCt method was used. The expression level of each gene was standardized by OAZ1 which is a housekeeping gene.

The subject of test [2] is human iPS cells. The test is described as follows: Measurement of GCG (glucagon) secretion amount by Glucagon ELISA. The settings on record: ascorbic acid removed from differentiation medium after PGT cells (Example 2) compared to medium with 0.25 mM ascorbic acid (Example 1); 2.0 mM glucose, 1 hour; FIG. 2. The format is cell-based. Here is the method:
Primitive gut tube (PGT) cells were produced from human iPS cells by the same method as in Example 1. The obtained primitive gut tube (PGT) cells were induced to differentiate into cells after posterior foregut (PFG) cells using a medium obtained by removing ascorbic acid from the medium of Comparative Example 1. The cells obtained by inducing differentiation in (1) were recovered in 2 × 10^6 cells and cultured for 30 minutes in a DMEM medium (containing 2 mM glucose) containing 10 mM HEPES and 0.1 (volume/volume)% BSA. Thereafter, the cells were washed twice with a DMEM medium (without glucose) containing 10 mM HEPES and 0.1 (volume/volume)% BSA. Thereafter, the cells were cultured for 1 hour in a DMEM medium containing 1 mL of 2.0 mM glucose, 10 mM HEPES, and 0.1 (volume/volume)% BSA. Thereafter, the GCG concentration contained in the culture supernatant was measured using a Glucagon ELISA 10 µl Kit (Mercodia). The GCG secretion amounts of the cells obtained in Example 1 and Comparative Example 1 were also measured as comparison targets by the above-mentioned method.
A general note: ELISA stands for enzyme-linked immunosorbent assay.

As for `CC1(C)CCC(C)(C)c2cc(C#Cc3ccc(C(=O)O)cc3)ccc21` [EC23], the “expression level of the GCG gene” value in the test on human iPS cells [1] is given as “up-regulation”.
Turning to `c1ccc2c(-c3cnn4cc(-c5ccc(N6CCNCC6)cc5)cnc34)ccnc2c1` [LDN193189], in the test with human iPS cells [1], the “expression level of the INS gene” value is “down-regulation” and the “expression level of the NKX6.1 gene” value was “down-regulation”.
Turning to `O=C1O[C@H]([C@@H](O)CO)C(O)=C1O` [ascorbic acid], in the test on human iPS cells [2], the glucagon secretion amount entry was “larger”.
